Consider three compounds from BindingDB's records for doi:10.1016/j.bmcl.2018.01.029 (Presidio Pharmaceuticals, 2018).

Each structure is given as a SMILES string.

Test [1] can be described thus: Inhibition of HCV genotype 3a NS5B polymerase infected in human HuH7 replicon cells by luciferase reporter gene assay.
Test [2] can be described thus: Inhibition of HCV genotype 1b NS5B polymerase infected in human HuH7 replicon cells by luciferase reporter gene assay.
Test [3] can be described thus: Inhibition of HCV genotype 1a NS5A polymerase infected in human HuH7 replicon cells by luciferase reporter gene assay.
Test [4] in a line: Inhibition of HCV genotype 2a NS5B polymerase infected in human HuH7 replicon cells by luciferase reporter gene assay.
Test [5] in a line: Inhibition of HCV genotype 4a NS5B polymerase infected in human HuH7 replicon cells by luciferase reporter gene assay.
Test [6] is described as follows: Inhibition of NS5B polymerase in HCV genotype 1b infected human HuH7 replicon cells assessed as reduction in viral RNA level after 3 days by RT-PCR assay.

On to `CNC(=O)c1c(-c2ccc(F)cc2)oc2cc3c(cc12)C(C)OCC(CS(C)(=O)=O)N3S(C)(=O)=O` (stereo unspecified), for which the EC50 in test [1] turned out to be 70 nM; in test [2], 19 nM; in test [3], 16 nM; in test [4], 134 nM; in test [5], 51 nM.

As for `CNC(=O)c1c(-c2ccc(F)cc2)oc2cc3c(cc12)C(C)OC(CS(C)(=O)=O)CN3S(C)(=O)=O` (stereo unspecified), the concentration for a half-maximal effect (EC50) in test [1] worked out at 17 nM; in test [2] it was 7 nM; in test [3] it was 9 nM; in test [4], 64 nM; in test [5], 17 nM.

For the compound `CNC(=O)c1c(-c2ccc(F)cc2)oc2cc(N(CCO)S(C)(=O)=O)c(C3CC3)cc12` [HCV 796], the EC50 in test [1] came out at 19 nM; in test [2], 12 nM; in test [3] it was 24 nM; in test [4] it was 72 nM; in test [6], 9 nM; in test [5], 21 nM.
